# According to publication PMC9146984, “A Novel Proline-Rich Cathelicidin from the Alpaca Vicugna pacos with Potency to Combat Antibiotic-Resistant Bacteria: Mechanism of Action and the Functional Role of the C-Terminal Region” (Membranes, 2022):
# Where two headings read alike, the source gives them in different places. Where a SMILES comes first, the peptide text is derived from it.
# Experiments:
# [1] = tested on: VicBac[1–22]-resistant E. coli MDR 1057 strain; conditions: Mueller-Hinton broth supplemented with 0.9% NaCl; strain selected 14 days with VicBac[1-22]; cross-resistance
# Experimental: (§1) Bacterial test cultures were grown in the Mueller-Hinton broth (MH; Sigma, St. Louis, MO, USA) at 37 °C to mid-log phase and then diluted with the 2× MH medium supplemented with 1.8% NaCl or without salt so that to reach a final cell concentration of 10^6 CFU/mL. 50 µL of the obtained bacterial suspension were added to aliquots of 50 µL of the peptide solutions serially diluted with sterilized 0.1% bovine serum albumin (BSA) in 96-well flat-bottom polystyrene microplates (Eppendorf #0030730011, Hamburg, Germany). […] To verify MIC values, the respiratory activity of the bacteria was determined. Briefly, 20 µL of 0.1 mg/mL resazurin (a redox indicator; Sigma, St. Louis, MO, USA) was added to the wells after 24 h of incubation, and the plate was incubated for an additional two hours. The reduction of resazurin to resorufin was measured. […] The results were expressed as the median values determined based on at least three independent experiments performed in triplicate.
# (§2) Resistance induction experiments were performed using the previously described method. Briefly, on day one, the overnight culture of wild-type bacteria was diluted with the 2× MH broth supplemented with 1.8% NaCl to reach a final cell concentration of 10^6 CFU/mL. 50 µL of the obtained bacterial suspension were added to aliquots of 50 µL of the peptide solutions serially diluted with the sterilized 0.1% BSA in 96-well flat-bottom polystyrene microplates. After incubation for 20 ± 2 h at 37 °C and 950 rpm, MICs were determined as described above. For each subsequent daily transfer, 2–4 μL of the inoculum taken from the first well containing a sub-inhibitory drug concentration were diluted with 2 mL of the fresh 2× MH broth supplemented with 1.8% NaCl. […] 14 repeated passages in the presence of antimicrobial agents were made for each bacterial strain during the experiment. Bacteria that grew at the highest concentration of AMPs on the final day were passaged a further 3 times on drug-free agar plates before determining the final MIC value.
# E. coli MDR CI 1057 = conditions: Mueller-Hinton broth supplemented with 0.9% NaCl; for Minimum inhibitory concentration E.coli MDR 1057 14 days w/o AMP: after 14 passages without antimicrobial agents; for Minimum inhibitory concentration E.coli MDR 1057 0 days: before passages
# Experimental: as §1, §2
# E. coli BW25113 ΔsbmA = assay type: cell-based, Escherichia coli; conditions: Mueller–Hinton broth, 24 h, 37 °C, median
# Experimental: (§3) The reduction of resazurin to resorufin was measured.
# E. coli BW25113 ΔmdtM = assay type: cell-based, Escherichia coli; conditions: Mueller–Hinton broth, 24 h, 37 °C, median
# Experimental: as §3
# E. coli BW25113 ΔompF = assay type: cell-based, Escherichia coli; conditions: Mueller–Hinton broth, 24 h, 37 °C, median
# Experimental: as §3
# E. coli BW25113 = assay type: cell-based, Escherichia coli; conditions: Mueller–Hinton broth, 24 h, 37 °C, median
# Experimental: as §3
# E. coli MDR 1057 = conditions: MH broth with 0.9% NaCl, 14 passages with the same agent (VicBac[1–22]: after 10 passages)
# Experimental: Resistance induction experiments were performed using the previously described method. Briefly, on day one, the overnight culture of wild-type bacteria was diluted with the 2× MH broth supplemented with 1.8% NaCl to reach a final cell concentration of 10^6 CFU/mL. 50 µL of the obtained bacterial suspension were added to aliquots of 50 µL of the peptide solutions serially diluted with the sterilized 0.1% BSA in 96-well flat-bottom polystyrene microplates. After incubation for 20 ± 2 h at 37 °C and 950 rpm, MICs were determined as described above. For each subsequent daily transfer, 2–4 μL of the inoculum taken from the first well containing a sub-inhibitory drug concentration were diluted with 2 mL of the fresh 2× MH broth supplemented with 1.8% NaCl. […] Bacteria that grew at the highest concentration of AMPs on the final day were passaged a further 3 times on drug-free agar plates before determining the final MIC value.
structure (smiles),measurement,setting,value
CC(C)C[C@H](NC(=O)[C@H](CCCNC(=N)N)NC(=O)[C@@H]1CCCN1C(=O)[C@@H]1CCCN1C(=O)[C@H](Cc1ccccc1)NC(=O)[C@H](Cc1ccccc1)NC(=O)[C@@H]1CCCN1C(=O)[C@@H]1CCCN1C(=O)[C@@H]1CCCN1C(=O)[C@H](CCCNC(=N)N)NC(=O)[C@@H]1CCCN1C(=O)[C@H](CCCNC(=N)N)NC(=O)[C@@H]1CCCN1C(=O)[C@H](CC(C)C)NC(=O)[C@H](Cc1ccc(O)cc1)NC(=O)[C@@H]1CCCN1C(=O)[C@@H]1CCCN1C(=O)[C@H](CCCNC(=N)N)NC(=O)[C@@H]1CCCN1C(=O)[C@H](CCCNC(=N)N)NC(=O)[C@H](CCCNC(=N)N)NC(=O)[C@@H](N)CCCNC(=N)N)C(=O)O [PR-39[1-22]] (H-RRRPRPPYLPRPRPPPFFPPRL-OH; N-terminus and C-terminus assumed),Minimum inhibitory concentration E.coli MDR 1057 14 days with VicBac [1-22],[1],> 128 µM
same,Minimum inhibitory concentration E.coli MDR 1057 14 days w/o AMP,E. coli MDR CI 1057,2 µM
same,Minimum inhibitory concentration E.coli MDR 1057 0 days,E. coli MDR CI 1057,2 µM
CC[C@H](C)[C@H](NC(=O)[C@H](CCCNC(=N)N)NC(=O)[C@@H](N)CCCNC(=N)N)C(=O)N[C@@H](CCCNC(=N)N)C(=O)N[C@@H](CCCNC(=N)N)C(=O)N1CCC[C@H]1C(=O)N[C@@H](CCCNC(=N)N)C(=O)N[C@@H](CC(C)C)C(=O)N1CCC[C@H]1C(=O)N[C@@H](CCCNC(=N)N)C(=O)N1CCC[C@H]1C(=O)N[C@@H](CCCNC(=N)N)C(=O)N[C@H](C(=O)N1CCC[C@H]1C(=O)O)C(C)C [VicBac[1-14]] (H-RRIRRPRLPRPRVP-OH; N-terminus and C-terminus assumed),"Minimum inhibitory concentration, E. coli strain ΔsbmA",E. coli BW25113 ΔsbmA; 0.9% NaCl: +,> 64 µM
same,"Minimum inhibitory concentration, E. coli strain ΔsbmA",E. coli BW25113 ΔsbmA; 0.9% NaCl: −,64 µM
same,"Minimum inhibitory concentration, E. coli strain ΔmdtM",E. coli BW25113 ΔmdtM; 0.9% NaCl: +,> 64 µM
same,"Minimum inhibitory concentration, E. coli strain ΔmdtM",E. coli BW25113 ΔmdtM; 0.9% NaCl: −,32 µM
same,"Minimum inhibitory concentration, E. coli strain ΔompF",E. coli BW25113 ΔompF; 0.9% NaCl: +,> 64 µM
same,"Minimum inhibitory concentration, E. coli strain ΔompF",E. coli BW25113 ΔompF; 0.9% NaCl: −,64 µM
"CC[C@H](C)[C@H](NC(=O)[C@H](CCCCN)NC(=O)[C@H](CCC(=O)O)NC(=O)[C@H](CCCCN)NC(=O)[C@H](CO)NC(=O)[C@H](CCCCN)NC(=O)[C@H](CCCNC(=N)N)NC(=O)[C@H](Cc1ccccc1)NC(=O)[C@H](Cc1ccccc1)NC(=O)[C@H](CC(=O)O)NC(=O)CNC(=O)[C@H](CC(C)C)NC(=O)[C@@H](N)CC(C)C)C(=O)NCC(=O)N[C@@H](CCCCN)C(=O)N[C@@H](CCC(=O)O)C(=O)N[C@@H](Cc1ccccc1)C(=O)N[C@@H](CCCCN)C(=O)N[C@@H](CCCNC(=N)N)C(=O)N[C@H](C(=O)N[C@H](C(=O)N[C@@H](CCC(N)=O)C(=O)N[C@@H](CCCNC(=N)N)C(=O)N[C@H](C(=O)N[C@@H](CCCCN)C(=O)N[C@@H](CC(=O)O)C(=O)N[C@@H](Cc1ccccc1)C(=O)N[C@@H](CC(C)C)C(=O)N[C@@H](CCCNC(=N)N)C(=O)N[C@@H](CC(N)=O)C(=O)N[C@@H](CC(C)C)C(=O)N[C@H](C(=O)N1CCC[C@H]1C(=O)N[C@@H](CCCNC(=N)N)C(=O)N[C@H](C(=O)N[C@@H](CCC(=O)O)C(=O)N[C@@H](CO)C(=O)O)[C@@H](C)O)C(C)C)[C@@H](C)CC)C(C)C)[C@@H](C)CC [LL-37, reference compound]","Minimum inhibitory concentration, E. coli strain ΔsbmA",E. coli BW25113 ΔsbmA; 0.9% NaCl: +,2 µM
same,"Minimum inhibitory concentration, E. coli strain ΔsbmA",E. coli BW25113 ΔsbmA; 0.9% NaCl: −,4 µM
same,"Minimum inhibitory concentration, E. coli strain ΔmdtM",E. coli BW25113 ΔmdtM; 0.9% NaCl: +,4 µM
same,"Minimum inhibitory concentration, E. coli strain ΔmdtM",E. coli BW25113 ΔmdtM; 0.9% NaCl: −,4 µM
same,"Minimum inhibitory concentration, E. coli strain ΔompF",E. coli BW25113 ΔompF; 0.9% NaCl: +,2 µM
same,"Minimum inhibitory concentration, E. coli strain ΔompF",E. coli BW25113 ΔompF; 0.9% NaCl: −,4 µM
same,"Minimum inhibitory concentration, E. coli strain BW25113",E. coli BW25113; 0.9% NaCl: +,2 µM
same,"Minimum inhibitory concentration, E. coli strain BW25113",E. coli BW25113; 0.9% NaCl: −,4 µM
same,increase in MIC value after serial passage selection,E. coli MDR 1057,2 fold
same,Minimum inhibitory concentration E.coli MDR 1057 14 days with VicBac [1-22],[1],4 µM
same,Minimum inhibitory concentration E.coli MDR 1057 14 days w/o AMP,E. coli MDR CI 1057,4 µM
same,Minimum inhibitory concentration E.coli MDR 1057 0 days,E. coli MDR CI 1057,4 µM
